According to patent US8957093B2, “N-biphenylmethylindole modulators of PPARG” (The Scripps Research Institute, priority 2011, dated 2015):
Where two headings read alike, the source gives them in different places.

Experiments:
[1] = molecular target: Gal-4-PPAR (human PPAR LBD fused to GAL4 DNA-binding domain) (Homo sapiens (Human), UniProt P37231); assay: GAL4-PPARG LBD / UAS-luciferase transactivation assay in HEK 293T cells; type: cell-based
[2] = molecular target: GST-PPARG-LBD (Homo sapiens (Human), UniProt P37231); assay: Lanthascreen PPARG competitive binding assay (Invitrogen, TR-FRET); conditions: NA = not active, inc = incomplete curve, read-out: IC50 (nM) Lantha
GST-PPARG-LBD, sequence (P37231 238-503): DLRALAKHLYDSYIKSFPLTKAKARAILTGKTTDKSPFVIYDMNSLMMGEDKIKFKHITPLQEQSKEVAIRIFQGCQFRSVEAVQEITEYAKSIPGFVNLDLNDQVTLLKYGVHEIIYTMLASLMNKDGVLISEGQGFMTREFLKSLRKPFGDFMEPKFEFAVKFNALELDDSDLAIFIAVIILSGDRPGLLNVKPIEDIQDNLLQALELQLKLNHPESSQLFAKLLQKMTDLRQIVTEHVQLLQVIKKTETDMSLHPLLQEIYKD
How it was run: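 TR-FRET competitive binding of GST-PPARG-LBD with 5 nM Tb-GST-antibody and 5 nM Fluormone Pan-PPAR Green tracer, in TR-FRET buffer C. Compound serially diluted from 10 μM, 2 h dark incubation, in triplicate. Readout is 520/490 nm emission ratio (340 nm excitation), expressed as fold change over 2% DMSO control.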

[3] = GAL4 transactivation, HEK 293T cells; NA = not active; read-out: EC50 (nM) GAL4
[4] = HEK-293T, 18 h; read-out: % transactivation at 10 μM (GAL4)
[5] = Lanthascreen competitive binding
[6] = GAL4 transactivation; read-out: EC50 (nM) GAL4
[7] = Lanthascreen PPARG competitive binding
[8] = HEK-293T, 18 h, read-out: % transactivation at 10 μM (GAL4)

Gal-4-PPAR (human PPAR LBD fused to GAL4 DNA-binding domain), sequence (P37231 238-503): as above

EC50 [1, 3] [nM]	IC50 [2, 5] [nM]	activation at 10 µM [1, 8] [%]	SMILES	activation at 10 µM [1, 4] [%]	EC50 [1, 6] [nM]	IC50 [2, 7] [nM]	EC50 [1] [nM]
–	–	–	Cc1c(C)n(Cc2ccc(-c3ccccc3C(=O)O)cc2)c2ccc(C(=O)N[C@@H](C)c3cccc(Br)n3)cc12 [Example 273, (S)-4′-((5-(1-(6-bromopyridin-2-yl)ethylcarbamoyl)-2,3-dimethyl-1H-indol-1-yl)methyl)biphenyl-2-carboxylic acid]	30	294	15	–
106	9	–	Cc1c(C)n(Cc2ccc(-c3ccccc3C(=O)O)cc2)c2ccc(C(=O)N[C@@H](C)c3cc(C(F)(F)F)ccc3C(F)(F)F)cc12 [Example 172, (S)-4′-((5-((1-(2,5-bis(trifluoromethyl)phenyl)ethyl)carbamoyl)-2,3-dimethyl-1H-indol-1-yl)methyl)-[1,1′-biphenyl]-2-carboxylic acid]	8	–	–	–
354	9	–	Cc1c(C)n(Cc2ccc(-c3ccccc3C(=O)O)cc2)c2ccc(C(=O)N[C@@H](C)c3cccc(F)c3F)cc12 [Example 229, (S)-4′-((5-((1-(2,3-difluorophenyl)ethyl)carbamoyl)-2,3-dimethyl-1H-indol-1-yl)methyl)-[1,1′-biphenyl]-2-carboxylic acid]	30	–	–	–
152	< 1	30	Cc1c(C)n(Cc2ccc(-c3ccccc3C(=O)O)cc2)c2ccc(C(=O)N[C@@H](C)c3ccccc3Cl)cc12 [Example 159, (S)-4′-((5-((1-(2-chlorophenyl)ethyl)carbamoyl)-2,3-dimethyl-1H-indol-1-yl)methyl)-[1,1′-biphenyl]-2-carboxylic acid]	–	–	–	–
–	–	–	Cc1c(C)n(Cc2ccc(-c3ccccc3C(=O)O)cc2)c2ccc(C(=O)N[C@H](C)c3cccc(Br)c3)cc12 [Example 296, (R)-4′-((5-((1-(3-Bromophenyl)ethyl)carbamoyl)-2,3-dimethyl-1H-indol-1-yl)methyl)-[1,1′-biphenyl]-2-carboxylic acid]	35	69	< 1	–
166	9	–	Cc1c(C)n(Cc2ccc(-c3ccccc3C(=O)O)cc2)c2ccc(C(=O)N[C@@H](C)c3ccc(F)c(F)c3)cc12 [Example 233, (S)-4′-((5-((1-(3,4-difluorophenyl)ethyl)carbamoyl)-2,3-dimethyl-1H-indol-1-yl)methyl)-[1,1′-biphenyl]-2-carboxylic acid]	40	–	–	–
193	20	–	Cc1c(C)n(Cc2ccc(-c3ccccc3C(=O)O)cc2)c2ccc(C(=O)N[C@@H](C)[C@H]3CCCN3C(=O)OCc3ccccc3)cc12 [Example 238, 4′-((5-(((S)-1-((R)-1-((benzyloxy)carbonyl)pyrrolidin-2-yl)ethyl)carbamoyl)-2,3-dimethyl-1H-indol-1-yl)methyl)-[1,1′-biphenyl]-2-carboxylic acid]	55	–	–	–
259	8	40	Cc1c(C)n(Cc2ccc(-c3ccccc3C(=O)O)cc2)c2ccc(C(=O)N[C@@H](C)c3cccc(F)c3)cc12 [Example 158, (S)-4′-((5-((1-(3-fluorophenyl)ethyl)carbamoyl)-2,3-dimethyl-1H-indol-1-yl)methyl)-[1,1′-biphenyl]-2-carboxylic acid]	–	–	–	–
529	30	–	Cc1c(C)n(Cc2ccc(-c3ccccc3C(=O)O)cc2)c2ccc(C(=O)N[C@H](C)c3c(Cl)cccc3Cl)cc12 [Example 141, (R)-4′-((5-((1-(2,6-dichlorophenyl)ethyl)carbamoyl)-2,3-dimethyl-1H-indol-1-yl)methyl)-[1,1′-biphenyl]-2-carboxylic acid]	20	–	–	–
40	< 1	–	Cc1c(C)n(Cc2ccc(-c3ccccc3C(=O)O)cc2)c2ccc(C(=O)N[C@H](C)c3ccc(C(F)(F)F)c(F)c3)cc12 [Example 234, (R)-4′-((5-((1-(3-fluoro-4-(trifluoromethyl)phenyl)ethyl)carbamoyl)-2,3-dimethyl-1H-indol-1-yl)methyl)-[1,1′-biphenyl]-2-carboxylic acid]	50	–	–	–
–	–	–	Cc1c(C)n(Cc2ccc(-c3ccccc3C(=O)NO)cc2)c2ccc(C(=O)N[C@@H](C)c3cccc(C(C)C)c3)cc12 [Example 313]	4	–	77	242
522	61	–	Cc1c(C)n(Cc2ccc(-c3ccccc3C(=O)O)cc2)c2ccc(C(=O)N[C@@H](C)c3ccc(C(F)(F)F)cc3)cc12 [Example 154, (S)-4′-((2,3-dimethyl-5-((1-(4-(trifluoromethyl)phenyl)ethyl)carbamoyl)-1H-indol-1-yl)methyl)-[1,1′-biphenyl]-2-carboxylic acid]	5	–	–	–
13	2	–	Cc1c(C)n(Cc2ccc(-c3ccccc3C(=O)O)cc2)c2ccc(C(=O)N[C@@H](C)c3ccccn3)cc12 [Example 144, (S)-4′-((2,3-dimethyl-5-((1-(pyridin-2-yl)ethyl)carbamoyl)-1H-indol-1-yl)methyl)-[1,1′-biphenyl]-2-carboxylic acid]	25	–	–	–
5240	512	–	Cc1c(C)n(Cc2ccc(-c3ccccc3C(=O)O)cc2)c2ccc(C(=O)N[C@H](C)c3ccnc4ccccc34)cc12 [Example 181, (R)-4′-((2,3-dimethyl-5-((1-(quinolin-4-yl)ethyl)carbamoyl)-1H-indol-1-yl)methyl)-[1,1′-biphenyl]-2-carboxylic acid]	40	–	–	–
114	4	50	Cc1c(C)n(Cc2ccc(-c3ccccc3C(=O)O)cc2)c2ccc(C(=O)N[C@@H](C)c3cccc(F)c3Cl)cc12 [Example 170, (S)-4′-((5-((1-(2-chloro-3-fluorophenyl)ethyl)carbamoyl)-2,3-dimethyl-1H-indol-1-yl)methyl)-[1,1′-biphenyl]-2-carboxylic acid]	–	–	–	–

SMILES	EC50 [1, 3] [nM]	IC50 [2, 5] [nM]	activation at 10 µM [1, 8] [%]	activation at 10 µM [1, 4] [%]	EC50 [1, 6] [nM]	IC50 [2, 7] [nM]	EC50 [1] [nM]
Cc1c(C)n(Cc2ccc(-c3ccccc3C(=O)O)cc2)c2ccc(C(=O)N[C@@H](C)C3CCCCC3)cc12 [Example 212, (S)-4′-((5-((1-cyclohexylethyl)carbamoyl)-2,3-dimethyl-1H-indol-1-yl)methyl)-[1,1′-biphenyl]-2-carboxylic acid]	209	4	–	20	–	–	–
Cc1c(C)n(Cc2ccc(-c3ccccc3C(=O)O)cc2)c2ccc(C(=O)N[C@@H](C)c3c(F)cncc3F)cc12 [Example 216, (S)-4′-((5-((1-(3,5-difluoropyridin-4-yl)ethyl)carbamoyl)-2,3-dimethyl-1H-indol-1-yl)methyl)-[1,1′-biphenyl]-2-carboxylic acid]	884	33	–	30	–	–	–
Cc1c(C)n(Cc2ccc(-c3ccccc3C(=O)O)cc2)c2ccc(C(=O)N[C@@H](C)c3ccc(Cl)nc3)cc12 [Example 262, (S)-4′-((5-((1-(6-chloropyridin-3-yl)ethyl)carbamoyl)-2,3-dimethyl-1H-indol-1-yl)methyl)-[1,1′-biphenyl]-2-carboxylic acid]	4000	144	–	35	–	–	–
Cc1c(C)n(Cc2ccc(-c3ccccc3C(=O)O)cc2)c2ccc(C(=O)N[C@H](C)C3COc4ccccc4O3)cc12 (stereo partly drawn) [Example 213, 4′-((5-(((1R)-1-(2,3-dihydrobenzo[b][1,4]dioxin-2-yl)ethyl)carbamoyl)-2,3-dimethyl-1H-indol-1-yl)methyl)-[1,1′-biphenyl]-2-carboxylic acid]	672	3	–	40	–	–	–
Cc1c(C)n(Cc2ccc(-c3ccccc3C(=O)O)cc2)c2ccc(C(=O)N[C@@H](C)c3ccc4c(c3)CCO4)cc12 [Example 218, (S)-4′-((5-((1-(2,3-dihydrobenzofuran-5-yl)ethyl)carbamoyl)-2,3-dimethyl-1H-indol-1-yl)methyl)-[1,1′-biphenyl]-2-carboxylic acid]	2550	223	–	45	–	–	–
Cc1c(C)n(Cc2ccc(-c3ccccc3C(=O)O)cc2)c2ccc(C(=O)N[C@H](C)c3ccnc(C4CC4)c3)cc12 [Example 270, (R)-4′-((5-(1-(2-cyclopropylpyridin-4-yl)ethylcarbamoyl)-2,3-dimethyl-1H-indol-1-yl)methyl)biphenyl-2-carboxylic acid]	686	15	–	40	–	–	–
Cc1c(C)n(Cc2ccc(-c3ccccc3-c3nnn[nH]3)cc2)c2ccc(C(=O)N[C@H](C)c3cccc(Br)c3)cc12 [Example 187, (R)-1-((2′-(1H-tetrazol-5-yl)-[1,1′-biphenyl]-4-yl)methyl)-N-(1-(3-bromophenyl)ethyl)-2,3-dimethyl-1H-indole-5-carboxamide]	5	< 1	–	20	–	–	–
Cc1c(C)n(Cc2ccc(-c3ccccc3C(=O)O)cc2)c2ccc(C(=O)N[C@H](C)c3ccc(C4CC4)nc3)cc12 [Example 264, (R)-4′-((5-((1-(6-cyclopropylpyridin-3-yl)ethyl)carbamoyl)-2,3-dimethyl-1H-indol-1-yl)methyl)-[1,1′-biphenyl]-2-carboxylic acid]	1990	32	–	35	–	–	–
CC[C@@H](NC(=O)c1ccc2c(ccn2Cc2ccccc2-c2ccc(C(=O)O)cc2)c1)c1ccccc1 [Example 190, (R)-2′-((5-((1-phenylpropyl)carbamoyl)-1H-indol-1-yl)methyl)-[1,1′-biphenyl]-4-carboxylic acid]	51	5	–	45	–	–	–
